Assay results: ChEMBL document CHEMBL6109147, “Discovery of Potent STING Inhibitors Bearing a Difluorobenzodioxol Structural Motif as Potent Anti-Inflammatory Agents” (J Med Chem, 2025)
The source made the active and inactive calls. The rule behind the calls is not given here.

Assays:
[1] = Cytotoxicity against mouse RAW-Lucia ISG cells assessed as cell viability measured after 24 hrs by CCK8 assay; assay type: toxicity, cell-based
[2] = target: Stimulator of interferon genes protein (Homo sapiens) (UniProt Q86WV6); experiment: Inhibition of STING downstream signalling in human THP1-Dual cells assessed as inhibition of HT-DNA induced IP-10 mRNA expression at 0.3 to 3 uM pre-treated for 1 hr followed by stimulated with HT-DNA measured after 4 hrs by real-time PCR analysis; assay type: cell-based; conditions: dose 0.3-3 µM, time 5.0 hrs
[3] = target: T1, Stimulator of interferon genes protein (Mus musculus) (UniProt Q3TBT3); experiment: Inhibition of STING downstream signalling in mouse RAW264.7 cells assessed as inhibition of DMAAA induced TNFalpha secretion level at 0.3 to 3 uM pre-treated for 1 hr followed by stimulated with DMAAA measured after 24 hrs by ELISA; assay type: cell-based; conditions: dose 0.3-3 µM, time 25.0 hrs
T1 sequence (whole entry): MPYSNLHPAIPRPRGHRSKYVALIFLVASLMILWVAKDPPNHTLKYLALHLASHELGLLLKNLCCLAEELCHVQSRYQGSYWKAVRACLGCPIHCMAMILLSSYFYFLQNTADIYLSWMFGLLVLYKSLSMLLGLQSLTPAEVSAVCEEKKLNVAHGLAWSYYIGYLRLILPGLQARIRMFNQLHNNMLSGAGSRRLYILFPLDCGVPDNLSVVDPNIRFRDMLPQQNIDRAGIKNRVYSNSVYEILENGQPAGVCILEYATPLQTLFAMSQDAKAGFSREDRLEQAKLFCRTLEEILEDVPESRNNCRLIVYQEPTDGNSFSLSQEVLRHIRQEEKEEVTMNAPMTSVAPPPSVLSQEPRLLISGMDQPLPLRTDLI

[4] = system: Mus musculus; experiment: Anti-inflammatory activity in TREX1 D18N mouse model assessed as reduction in IL6 mRNA expression in heart at 10 mg/kg, ip measured after 2 weeks; assay type: functional, organism-based
[5] = MRT (0 to infinity) in Sprague-Dawley rat at 1 mg/kg, iv; assay type: ADME, organism-based; conditions: Sprague-Dawley, in vivo
[6] = Metabolic stability in mouse liver microsomes assessed as liver intrinsic clearance; assay type: ADME, Microsome
[7] = target: Stimulator of interferon genes protein (Homo sapiens) (UniProt Q86WV6); experiment: Inhibition of STING in human THP1-Dual cells assessed as inhibition of HT-DNA induced cGAS activation measured after 1 hr incubation followed by stimulated with HT-DNA by Western blotting analysis; assay type: cell-based
[8] = system: Mus musculus; experiment: Anti-inflammatory activity in TREX1 D18N mouse model assessed as reduction in Ifn-beta mRNA expression in kidney at 10 mg/kg, ip measured after 2 weeks; assay type: functional, organism-based
[9] = target: Stimulator of interferon genes protein (Homo sapiens) (UniProt Q86WV6); experiment: Inhibition of STING downstream signalling in human THP1-Dual cells assessed as inhibition of cGAMP induced IP-10 mRNA expression at 0.3 to 3 uM pre-treated for 1 hr followed by stimulated with cGAMP measured after 4 hrs by real-time PCR analysis; assay type: cell-based; conditions: dose 0.3-3 µM, time 5.0 hrs
[10] = target: Stimulator of interferon genes protein (Homo sapiens) (UniProt Q86WV6); experiment: Inhibition of STING downstream signalling in human THP1-Dual cells assessed as inhibition of cGAMP induced IP-10 secretion at 0.3 to 3 uM pre-treated for 1 hr followed by stimulated with cGAMP measured after 24 hrs by ELISA; assay type: cell-based; conditions: dose 0.3-3 µM, time 25.0 hrs
[11] = system: Mus musculus; experiment: Anti-inflammatory activity in TREX1 D18N mouse model assessed as reduction in Cxcl10 mRNA expression in kidney at 10 mg/kg, ip measured after 2 weeks; assay type: functional, organism-based
[12] = system: Mus musculus; experiment: Anti-inflammatory activity against MSA-2 induced C57BL/6 mouse inflammation model assessed as inhibition of MSA-2 induced IP-10 level in plasma at 10 mg/kg, ip pre-treated for 1 hr followed by stimulated with MSA-2 for 4 hrs by ELISA; assay type: functional, organism-based; conditions: time 5.0 hrs
[13] = target: Stimulator of interferon genes protein (Homo sapiens) (UniProt Q86WV6); experiment: Inhibition of STING downstream signalling in human THP1-Dual cells assessed as inhibition of cGAMP induced IFN-beta secretion at 0.3 to 3 uM pre-treated for 1 hr followed by stimulated with cGAMP measured after 24 hrs by ELISA; assay type: cell-based; conditions: dose 0.3-3 µM, time 25.0 hrs
[14] = system: Mus musculus; experiment: Anti-inflammatory activity against MSA-2 induced C57BL/6 mouse inflammation model assessed as inhibition of MSA-2 induced IL-6 level in plasma at 10 mg/kg, ip pre-treated for 1 hr followed by stimulated with MSA-2 for 4 hrs by ELISA; assay type: functional, organism-based; conditions: time 5.0 hrs
[15] = system: Mus musculus; experiment: Anti-inflammatory activity against MSA-2 induced C57BL/6 mouse inflammation model assessed as inhibition of MSA-2 induced Cxcl-10 mRNA expression in kidney at 10 mg/kg, ip pre-treated for 1 hr followed by stimulated with MSA-2 for 4 hrs by real-time PCR analysis; assay type: functional, organism-based; conditions: time 5.0 hrs
[16] = target: Stimulator of interferon genes protein (Homo sapiens) (UniProt Q86WV6); experiment: Inhibition of STING downstream signalling in human THP1-Dual cells assessed as inhibition of HT-DNA induced ISG15 mRNA expression at 0.3 to 3 uM pre-treated for 1 hr followed by stimulated with HT-DNA measured after 4 hrs by real-time PCR analysis; assay type: cell-based; conditions: dose 0.3-3 µM, time 5.0 hrs
[17] = Metabolic stability in rat liver microsomes assessed as liver intrinsic clearance; assay type: ADME, Microsome
[18] = Half life in Sprague-Dawley rat at 3 mg/kg, po; assay type: ADME, organism-based; conditions: in vivo
[19] = target: T1, Stimulator of interferon genes protein (Mus musculus); experiment: Inhibition of STING in mouse […] ISG cells assessed as reduction in MSA-2-induced secreted luciferase reporter of interferon stimulated gene (ISG) measured after 24 hrs incubation; assay type: cell-based; conditions: RAW-Lucia ISG
[20] = Metabolic stability in rat liver microsomes assessed as half life; assay type: ADME, Microsome
[21] = system: THP1-Dual; experiment: Cytotoxicity against human THP1-Dual cells assessed as cell viability measured after 24 hrs by CCK8 assay; assay type: functional, cell-based
[22] = MRT (0 to infinity) in Sprague-Dawley rat at 3 mg/kg, po; assay type: ADME, organism-based; conditions: in vivo
[23] = target: T1, Stimulator of interferon genes protein (Mus musculus); experiment: Inhibition of STING downstream signalling in mouse RAW264.7 cells assessed as inhibition of […] induced IL-6 secretion level at 0.3 to 3 uM pre-treated for 1 hr followed by stimulated with […] measured after 24 hrs by ELISA; assay type: cell-based; conditions: dose 0.3-3 µM, time 25.0 hrs
[24] = target: Stimulator of interferon genes protein (Homo sapiens) (UniProt Q86WV6); experiment: Inhibition of STING downstream signalling in human THP1-Dual cells assessed as inhibition of HT-DNA induced TNF-alpha mRNA expression at 0.3 to 3 uM pre-treated for 1 hr followed by stimulated with HT-DNA measured after 4 hrs by real-time PCR analysis; assay type: cell-based; conditions: dose 0.3-3 µM, time 5.0 hrs
[25] = Metabolic stability in human liver microsomes assessed as liver intrinsic clearance; assay type: ADME, Microsome
[26] = target: Stimulator of interferon genes protein (Homo sapiens) (UniProt Q86WV6); experiment: Inhibition of STING downstream signalling in human THP1-Dual cells assessed as inhibition of MSA-2 induced IP-10 mRNA expression at 0.3 to 3 uM pre-treated for 1 hr followed by stimulated with MSA-2 measured after 4 hrs by real-time PCR analysis; assay type: cell-based; conditions: dose 0.3-3 µM, time 5.0 hrs
[27] = Metabolic stability in mouse liver microsomes assessed as half life; assay type: ADME, Microsome
[28] = system: Mus musculus; experiment: Anti-inflammatory activity in TREX1 D18N mouse model assessed as reduction in Isg56 mRNA expression in kidney at 10 mg/kg, ip measured after 2 weeks; assay type: functional, organism-based
[29] = system: Mus musculus; experiment: Effect on Isg56 expression in Cisplatin induced C57BL/6 STING-KO mouse kidney inflammation model at 5 mg/kg, ip treated for 3 days by real-time PCR analysis; assay type: functional, organism-based; conditions: time 3.0 day

Chain of Stimulator of interferon genes protein (Homo sapiens) (Q86WV6 whole entry): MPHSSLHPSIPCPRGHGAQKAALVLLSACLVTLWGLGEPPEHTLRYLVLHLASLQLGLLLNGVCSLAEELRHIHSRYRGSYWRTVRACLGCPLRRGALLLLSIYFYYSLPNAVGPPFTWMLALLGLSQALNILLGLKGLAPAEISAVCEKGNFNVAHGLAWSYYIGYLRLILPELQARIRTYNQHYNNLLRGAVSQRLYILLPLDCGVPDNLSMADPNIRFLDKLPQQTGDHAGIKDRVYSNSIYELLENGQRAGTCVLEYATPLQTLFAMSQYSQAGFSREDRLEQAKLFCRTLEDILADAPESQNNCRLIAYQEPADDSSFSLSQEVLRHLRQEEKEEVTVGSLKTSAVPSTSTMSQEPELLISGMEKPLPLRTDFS

N#CC/C=C/c1ccc2[nH]cc(NC(=O)Nc3ccc4c(c3)OC(F)(F)O4)c2c1
Activity [1]: Non-toxic | inhibition [2]: Active | inhibition [3]: Active | Activity [4]: Active | MRT inf [5]: 22.8 min | CLH [6]: 206 µL/min/mg | inhibition [7]: Dose-dependent-effect | Activity [8]: Active | inhibition [9]: Active | inhibition [10]: Active | Activity [11]: Active | inhibition [12]: Active | inhibition [13]: Active | inhibition [14]: Active | inhibition [15]: Active | inhibition [16]: Active | CLH [17]: 64.8 µL/min/mg | half-life [18]: 196 min | inhibition [19]: Dose-dependent-effect | half-life [20]: 38.5 min | inhibition [21]: inactive | MRT [22]: 460 min | inhibition [23]: Active | inhibition [24]: Active | CLH [25]: 36.9 µL/min/mg | inhibition [26]: Active | half-life [27]: 26.7 min | Activity [28]: Active | Activity [29]: inactive
